# Data from the supplement of paper PMC10307832.
# Assays:
# Test in all cases: relative viability (nuclei count vs DMSO), 5 days (fraction); higher = more cells survive
# Bosutinib + Phenformin = compound: COc1cc(Nc2c(C#N)cnc3cc(OCCCN4CCN(C)CC4)c(OC)cc23)c(Cl)cc1Cl [Bosutinib] + N=C(N)NC(=N)NCCc1ccccc1 [Phenformin] (partner 250 µM)
# Outline: (§1)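 Lung cancer cell lines were pin-tool dosed in 1536-well plates on the day after seeding, with either a lone drug or a fixed anchor-drug dose plus five library-drug doses (not always all listed) in √10 steps. Nuclei were counted on 4× images after 5 days. Relative viability is the ratio of treated-well to vehicle-well nuclei counts, with each value a median of duplicate plates.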
# Bosutinib + Pictilisib = compound: COc1cc(Nc2c(C#N)cnc3cc(OCCCN4CCN(C)CC4)c(OC)cc23)c(Cl)cc1Cl [Bosutinib] + CS(=O)(=O)N1CCN(Cc2cc3nc(-c4cccc5[nH]ncc45)nc(N4CCOCC4)c3s2)CC1 [Pictilisib] (partner 1 µM)
# Outline: as §1
# Bosutinib + Dasatinib = compound: COc1cc(Nc2c(C#N)cnc3cc(OCCCN4CCN(C)CC4)c(OC)cc23)c(Cl)cc1Cl [Bosutinib] + Cc1nc(Nc2ncc(C(=O)Nc3c(C)cccc3Cl)s2)cc(N2CCN(CCO)CC2)n1 [Dasatinib] (partner 0.075 µM)
# Outline: as §1
# Bosutinib + Lapatinib = compound: COc1cc(Nc2c(C#N)cnc3cc(OCCCN4CCN(C)CC4)c(OC)cc23)c(Cl)cc1Cl [Bosutinib] + CS(=O)(=O)CCNCc1ccc(-c2ccc3ncnc(Nc4ccc(OCc5cccc(F)c5)c(Cl)c4)c3c2)o1 [Lapatinib] (partner 2 µM)
# Outline: as §1
# Bosutinib + Alpelisib = compound: COc1cc(Nc2c(C#N)cnc3cc(OCCCN4CCN(C)CC4)c(OC)cc23)c(Cl)cc1Cl [Bosutinib] + Cc1nc(NC(=O)N2CCC[C@H]2C(N)=O)sc1-c1ccnc(C(C)(C)C(F)(F)F)c1 [Alpelisib] (partner 2 µM)
# Outline: as §1
Cell Line,relative viability (Bosutinib + Phenformin; first compound 0.01 µM),relative viability (Bosutinib + Phenformin; first compound 0.03162 µM),relative viability (Bosutinib + Phenformin; first compound 0.1 µM),relative viability (Bosutinib + Phenformin; first compound 1 µM),relative viability (Bosutinib + Pictilisib; first compound 0.01 µM),relative viability (Bosutinib + Pictilisib; first compound 0.03162 µM),relative viability (Bosutinib + Pictilisib; first compound 0.1 µM),relative viability (Bosutinib + Pictilisib; first compound 1 µM),relative viability (Bosutinib + Dasatinib; first compound 0.01 µM),relative viability (Bosutinib + Dasatinib; first compound 0.03162 µM),relative viability (Bosutinib + Dasatinib; first compound 0.1 µM),relative viability (Bosutinib + Dasatinib; first compound 1 µM),relative viability (Bosutinib + Lapatinib; first compound 0.01 µM),relative viability (Bosutinib + Lapatinib; first compound 0.03162 µM),relative viability (Bosutinib + Lapatinib; first compound 0.1 µM),relative viability (Bosutinib + Lapatinib; first compound 1 µM),relative viability (Bosutinib + Alpelisib; first compound 0.01 µM),relative viability (Bosutinib + Alpelisib; first compound 0.03162 µM),relative viability (Bosutinib + Alpelisib; first compound 0.1 µM),relative viability (Bosutinib + Alpelisib; first compound 1 µM)
ChaGo-K-1,0.536,0.503,0.497,0.515,0.544,1.05,1.06,1.14,0.662,0.56,0.637,0.6,–,–,–,–,–,–,–,–
EKVX,0.213,0.248,0.236,0.223,0.427,0.469,0.41,0.309,0.549,0.505,0.611,0.491,0.231,0.216,0.242,0.172,0.894,0.89,0.847,0.476
EMC-BAC-2,0.464,0.545,0.488,0.376,0.576,0.507,0.52,0.506,0.356,0.325,0.347,0.328,0.878,0.835,0.86,0.873,0.757,0.731,0.723,0.657
EPLC-272H,0.275,0.353,0.331,0.335,0.375,0.293,0.36,0.426,0.476,0.425,0.447,0.409,1.19,0.931,1.02,1.04,0.937,1.15,1.03,0.854
H3255,0.361,0.359,0.356,0.309,0.488,0.49,0.44,0.235,0.369,0.381,0.364,0.288,0.251,0.238,0.235,0.258,0.686,0.743,0.669,0.198
HARA,0.522,0.431,0.376,0.45,0.442,0.453,0.45,0.352,0.303,0.296,0.304,0.385,0.7,0.657,0.757,0.76,0.842,0.817,0.874,0.502
HCC-15,0.478,0.466,0.471,0.389,0.799,0.829,0.725,0.773,0.651,0.662,0.678,0.674,0.901,0.858,0.829,0.812,0.844,0.9,0.924,0.85
HCC-44,0.247,0.278,0.185,0.388,0.723,0.548,0.587,0.632,–,–,–,–,1.03,0.96,0.982,1.07,0.749,0.877,0.761,0.772
HCC-78,0.665,0.703,0.802,0.7,0.2,0.196,0.269,0.301,0.356,0.478,0.46,0.373,0.468,0.798,0.817,0.7,0.349,0.31,0.393,0.32
